In assay [1] the test system is Puccinia recondita f. Sp. Tritici. Description: Puccinia recondita f. sp. tritici / wheat / leaf disc preventative (brown rust). The settings on record: foliar, 200 ppm in the applied formulation, inoculated 1 day after application, assessed 7 to 9 days after application, vs untreated control leaf disks, read-out: disease control. The class given is in vivo, Puccinia recondita f. sp. tritici on wheat cv. Kanzler. The method, then:
Leaf disks or leaf segments of various plant species are cut from plants grown in a greenhouse. The cut leaf disks or segments are placed in multiwell plates (24-well format) onto water agar. The leaf disks are sprayed with a test solution before (preventative) or after (curative) inoculation. Compounds to be tested are prepared as DMSO solutions (max. 10 mg/ml) which are diluted to the appropriate concentration with 0.025% Tween20 just before spraying. The inoculated leaf disks or segments are incubated under defined conditions (temperature, relative humidity, light, etc.) according to the respective test system. A single evaluation of disease level is carried out 3 to 14 days after inoculation, depending on the pathosystem. Percent disease control relative to the untreated check leaf disks or segments is then calculated. Wheat leaf segments cv. Kanzler were placed on agar in multiwell plates (24-well format) and sprayed with the formulated test compound diluted in water. The leaf disks were inoculated with a spore suspension of the fungus 1 day after application. The inoculated leaf segments were incubated at 19′C and 75% relative humidity (rh) under a light regime of 12 hours light/12 hours darkness in a climate cabinet and the activity of a compound was assessed as percent disease control compared to untreated when an appropriate level of disease damage appears in untreated check leaf segments (7 to 9 days after application). The following compounds at 200 ppm in the applied formulation give at least 80% disease control in this test when compared to untreated control leaf disks under the same conditions, which show extensive disease development.

The test system of assay [2] is Puccinia recondita f. Sp. Triticil. Kind of assay: Puccinia recondita f. sp. tritici / wheat / leaf disc curative (brown rust). The class given is in vivo, Puccinia recondita f. sp. tritici on wheat cv. Kanzler. To be noted: foliar, 200 ppm in the applied formulation, applied 1 day after inoculation, assessed 6 to 8 days after application, vs untreated control leaf disks, read-out: disease control. As to the method:
Leaf disks or leaf segments of various plant species are cut from plants grown in a greenhouse. The cut leaf disks or segments are placed in multiwell plates (24-well format) onto water agar. The leaf disks are sprayed with a test solution before (preventative) or after (curative) inoculation. Compounds to be tested are prepared as DMSO solutions (max. 10 mg/ml) which are diluted to the appropriate concentration with 0.025% Tween20 just before spraying. The inoculated leaf disks or segments are incubated under defined conditions (temperature, relative humidity, light, etc.) according to the respective test system. A single evaluation of disease level is carried out 3 to 14 days after inoculation, depending on the pathosystem. Percent disease control relative to the untreated check leaf disks or segments is then calculated.
Wheat leaf segments cv. Kanzler are placed on agar in multiwell plates (24-well format). The leaf segments are then inoculated with a spore suspension of the fungus. Plates were stored in darkness at 19° C. and 75% relative humidity. The formulated test compound diluted in water was applied 1 day after inoculation. The leaf segments were incubated at 19° C. and 75% relative humidity under a light regime of 12 hours light/12 hours darkness in a climate cabinet and the activity of a compound was assessed as percent disease control compared to untreated when an appropriate level of disease damage appears in untreated check leaf segments (6 to 8 days after application).
The following compounds at 200 ppm in the applied formulation give at least 80% disease control in this test when compared to untreated control leaf disks under the same conditions, which show extensive disease development.

Assay [3] concerns Glomerella Lacenarium (Colletotrichum lacenarium). Description: Glomerella lagenarium (Colletotrichum lagenarium) liquid culture / cucumber / preventative (anthracnose). The class given is cell-based. The settings on record: 20 ppm in the applied formulation, liquid culture in PDB, 24° C., inhibition of growth measured photometrically 3 to 4 days after application, vs untreated control, read-out: disease control. As to the method: Mycelia fragments or conidia suspensions of a fungus prepared either freshly from liquid cultures of the fungus or from cryogenic storage, are directly mixed into nutrient broth. DMSO solutions of the test compound (max. 10 mg/ml) are diluted with 0.025% Tween20 by a factor of 50 and 10 μl of this solution is pipetted into a microtiter plate (96-well format). The nutrient broth containing the fungal spores/mycelia fragments is then added to give an end concentration of the tested compound. The test plates are incubated in the dark at 24° C. and 96% relative humidity. The inhibition of fungal growth is determined photometrically after 2 to 7 days, depending on the pathosystem, and percent antifungal activity relative to the untreated check is calculated.
Conidia of the fungus from cryogenic storage are directly mixed into nutrient broth (PDB—potato dextrose broth). After placing a (DMSO) solution of test compound into a microtiter plate (96-well format), the nutrient broth containing the fungal spores is added. The test plates are incubated at 24° C. and the inhibition of growth is measured photometrically 3 to 4 days after application.
The following compounds at 20 ppm in the applied formulation give at least 80% disease control in this test when compared to untreated control under the same conditions, which show extensive disease development.

This passage reports pest or weed control and inhibition of growth results from patent US20180368410A1, “MICROBIOCIDAL OXADIAZOLE DERIVATIVES” (SYNGENTA PARTICIPATIONS AG, priority 2015, published 2018).

SMILES strings stand for the structures. A value given as a limit tells only on which side of the number the result lay.

Turning to `O=C(NCc1ccc(-c2noc(C(F)(F)F)n2)cc1F)C1CC1` [Compound 1.47, N-[[2-fluoro-4-[5-(trifluoromethyl)-1,2,4-oxadiazol-3-yl]phenyl]methyl] cyclopropanecarboxamide], the pest or weed control at 200 ppm in assay [1] and in assay [2] was at least 80% in each case. For the same molecule, the inhibition of growth at 20 ppm in assay [3] is at least 80%.

With `O=C(NCc1ccc(-c2noc(C(F)(F)F)n2)cc1F)C1CCOC1` (centres unmarked) [Compound 1.70, N-[[2-fluoro-4-[5-(trifluoromethyl)-1,2,4-oxadiazol-3-yl]phenyl]methyl] tetrahydrofuran-3-carboxamide], the pest or weed control at 200 ppm in assay [1] and in assay [2] was at least 80% throughout. Besides, the inhibition of growth at 20 ppm in assay [3] is at least 80%.

Regarding `O=C(NCc1ccc(-c2noc(C(F)(F)F)n2)cn1)C1CCCO1` (centres unmarked) [Compound 1.46, N-[[5-[5-(trifluoromethyl)-1,2,4-oxadiazol-3-yl]-2-pyridyl]methyl]tetrahydrofuran-2-carboxamide], the pest or weed control at 200 ppm in assay [1] and in assay [2] was at least 80% throughout. Also, the inhibition of growth at 20 ppm in assay [3] is at least 80%.

For `CC1(C(=O)NCc2ccc(-c3noc(C(F)(F)F)n3)cn2)CC1` [Compound 1.90, 1-methyl-N-[[5-[5-(trifluoromethyl)-1,2,4-oxadiazol-3-yl]-2-pyridyl]methyl] cyclopropanecarboxamide], the pest or weed control at 200 ppm in assay [1] and in assay [2] was at least 80% throughout. In addition, in assay [3], the inhibition of growth at 20 ppm was at least 80%.

`O=C(NCc1ccc(-c2noc(C(F)(F)F)n2)cn1)C1CC1` [Compound 1.45, N-[[5-[5-(trifluoromethyl)-1,2,4-oxadiazol-3-yl]-2-pyridyl]methyl] cyclopropanecarboxamide]: the pest or weed control at 200 ppm in assay [1] and in assay [2] was at least 80% throughout. Besides, the inhibition of growth at 20 ppm in assay [3] was at least 80%.

With `O=C(NCc1ccc(-c2noc(C(F)(F)F)n2)cc1Cl)C1CCCO1` (centres unmarked) [Compound 1.50, N-[[2-chloro-4-[5-(trifluoromethyl)-1,2,4-oxadiazol-3-yl]phenyl]methyl]tetrahydrofuran-2-carboxamide], the pest or weed control at 200 ppm in assay [1] and in assay [2] was at least 80% each time. In addition, the inhibition of growth at 20 ppm in assay [3] is at least 80%.

In the case of `CC1CC1C(=O)NCc1ccc(-c2noc(C(F)(F)F)n2)cn1` (centres unmarked) [Compound 1.89, 2-methyl-N-[[5-[5-(trifluoromethyl)-1,2,4-oxadiazol-3-yl]-2-pyridyl]methyl] cyclopropanecarboxamide], the pest or weed control at 200 ppm in assay [1] and in assay [2] was at least 80% each time. Moreover, in assay [3], the inhibition of growth at 20 ppm was at least 80%.

Regarding `O=C(NCc1ccc(-c2noc(C(F)(F)F)n2)c(F)c1F)C1CCOC1` (centres unmarked) [Compound 1.83, N-[[2,3-difluoro-4-[5-(trifluoromethyl)-1,2,4-oxadiazol-3-yl]phenyl]methyl] tetrahydrofuran-3-carboxamide], the pest or weed control at 200 ppm in assay [1] and in assay [2] was at least 80% throughout. In addition, the inhibition of growth at 20 ppm in assay [3] was at least 80%.

In the case of `O=C(NCc1ccc(-c2noc(C(F)(F)F)n2)c(F)c1)C1CCOC1` (centres unmarked) [Compound 1.68, N-[[3-fluoro-4-[5-(trifluoromethyl)-1,2,4-oxadiazol-3-yl]phenyl]methyl] tetrahydrofuran-3-carboxamide], the pest or weed control at 200 ppm in assay [1] and in assay [2] was at least 80% in each case. Besides, the inhibition of growth at 20 ppm in assay [3] was at least 80%.

With `O=C(NCc1ccc(-c2noc(C(F)(F)F)n2)cc1F)C1CCC1` [Compound 1.63, N-[[2-fluoro-4-[5-(trifluoromethyl)-1,2,4-oxadiazol-3-yl]phenyl]methyl] cyclobutanecarboxamide], the pest or weed control at 200 ppm in assay [1] and in assay [2] was at least 80% each time. Also, the inhibition of growth at 20 ppm in assay [3] is at least 80%.

`Cc1cc(C(=O)NCc2ccc(-c3noc(C(F)(F)F)n3)cc2)c(C)o1` [Compound 1.41, 2,5-dimethyl-N-[[4-[5-(trifluoromethyl)-1,2,4-oxadiazol-3-yl]phenyl]methyl]furan-3-carboxamide]: the pest or weed control at 200 ppm in assay [1] and in assay [2] was at least 80% in each case.

On to `CC1(C(=O)NCc2ccc(-c3noc(C(F)(F)F)n3)c(F)c2F)COC1` [Compound 1.85, N-[[2,3-difluoro-4-[5-(trifluoromethyl)-1,2,4-oxadiazol-3-yl]phenyl]methyl]-3-methyl-oxetane-3-carboxamide], for which the pest or weed control at 200 ppm in assay [1] and in assay [2] was at least 80% in each case. Also, the inhibition of growth at 20 ppm in assay [3] was at least 80%.

For `O=C(CC1CC1)NCc1ccc(-c2noc(C(F)(F)F)n2)cn1` [Compound 1.87, 2-cyclopropyl-N-[[5-[5-(trifluoromethyl)-1,2,4-oxadiazol-3-yl]-2-pyridyl]methyl]acetamide], the pest or weed control at 200 ppm in assay [1] and in assay [2] was at least 80% throughout. Moreover, the inhibition of growth at 20 ppm in assay [3] was at least 80%.

As for `CC1(C(=O)NCc2ccc(-c3noc(C(F)(F)F)n3)cc2F)COC1` [Compound 1.71, N-[[2-fluoro-4-[5-(trifluoromethyl)-1,2,4-oxadiazol-3-yl]phenyl]methyl]-3-methyl-oxetane-3-carboxamide], the pest or weed control at 200 ppm in assay [1] and in assay [2] was at least 80% in each case. Further, the inhibition of growth at 20 ppm in assay [3] was at least 80%.

Regarding `O=C(NCc1ccc(-c2noc(C(F)(F)F)n2)cn1)C1CCC1` [Compound 1.88, N-[[5-[5-(trifluoromethyl)-1,2,4-oxadiazol-3-yl]-2-pyridyl]methyl] cyclobutanecarboxamide], the pest or weed control at 200 ppm in assay [1] and in assay [2] was at least 80% each time. The inhibition of growth at 20 ppm in assay [3] was at least 80%.

With `O=C(NCc1ccc(-c2noc(C(F)(F)F)n2)cn1)c1ccccc1Cl` [Compound 1.44, 2-chloro-N-[[5-[5-(trifluoromethyl)-1,2,4-oxadiazol-3-yl]-2-pyridyl]methyl]benzamide], the pest or weed control at 200 ppm in assay [1] and in assay [2] was at least 80% throughout. For the same molecule, the inhibition of growth at 20 ppm in assay [3] was at least 80%.

Turning to `O=C(NCc1ccc(-c2noc(C(F)(F)F)n2)cn1)C1CC1(F)F` (centres unmarked) [Compound 1.86, 2,2-difluoro-N-[[5-[5-(trifluoromethyl)-1,2,4-oxadiazol-3-yl]-2-pyridyl]methyl] cyclopropanecarboxamide], the pest or weed control at 200 ppm in assay [1] and in assay [2] was at least 80% in each case. Moreover, the inhibition of growth at 20 ppm in assay [3] is at least 80%.
